Test results taken from the NIST ThermoML archive (doi:10.1016/j.jct.2013.06.018).
± gives the expanded uncertainty stated by the source.

Test: excess molar enthalpy (molar enthalpy of mixing); xn = mol fraction of the nth substance listed
Conditions: 298.15 K, 101 kPa, Liquid, Calvet calorimetry

SMILES: CCCCCCC [heptane] + CCCO
- excess molar enthalpy (x2 = 0.0699): 0.102 ± 0.00215 kcal/mol
- excess molar enthalpy (x2 = 0.1182): 0.125 ± 0.00263 kcal/mol
- excess molar enthalpy (x2 = 0.2088): 0.148 ± 0.00311 kcal/mol
- excess molar enthalpy (x2 = 0.3839): 0.158 ± 0.00335 kcal/mol
- excess molar enthalpy (x2 = 0.4743): 0.152 ± 0.00335 kcal/mol
- excess molar enthalpy (x2 = 0.5332): 0.142 ± 0.00311 kcal/mol
- excess molar enthalpy (x2 = 0.6744): 0.115 ± 0.00239 kcal/mol
- excess molar enthalpy (x2 = 0.7196): 0.103 ± 0.00215 kcal/mol
- excess molar enthalpy (x2 = 0.7698): 0.0906 ± 0.00191 kcal/mol
- excess molar enthalpy (x2 = 0.7701): 0.0884 ± 0.00191 kcal/mol
- excess molar enthalpy (x2 = 0.8193): 0.0719 ± 0.00167 kcal/mol
- excess molar enthalpy (x2 = 0.8566): 0.0605 ± 0.00143 kcal/mol
- excess molar enthalpy (x2 = 0.8909): 0.0483 ± 0.0012 kcal/mol
- excess molar enthalpy (x2 = 0.8974): 0.0464 ± 0.000956 kcal/mol
- excess molar enthalpy (x2 = 0.9343): 0.0308 ± 0.000717 kcal/mol
- excess molar enthalpy (x2 = 0.9675): 0.016 ± 0.000478 kcal/mol
